Results published in US8343961B2, “Substituted heterocyclic compounds” (ArQule, Inc., priority 2009, dated 2013).
Values belong to the molecule of their own block, whether it stands above or below them.

How the values were obtained:
EphA8 = target: T1, EphA8 (Homo sapiens, UniProt P29322); experiment: EphA8 Kinase Activity Assay; assay type: biochemical; conditions: read-out: EphA8, % INH, at 30 uM
T1 sequence (P29322 28-1005): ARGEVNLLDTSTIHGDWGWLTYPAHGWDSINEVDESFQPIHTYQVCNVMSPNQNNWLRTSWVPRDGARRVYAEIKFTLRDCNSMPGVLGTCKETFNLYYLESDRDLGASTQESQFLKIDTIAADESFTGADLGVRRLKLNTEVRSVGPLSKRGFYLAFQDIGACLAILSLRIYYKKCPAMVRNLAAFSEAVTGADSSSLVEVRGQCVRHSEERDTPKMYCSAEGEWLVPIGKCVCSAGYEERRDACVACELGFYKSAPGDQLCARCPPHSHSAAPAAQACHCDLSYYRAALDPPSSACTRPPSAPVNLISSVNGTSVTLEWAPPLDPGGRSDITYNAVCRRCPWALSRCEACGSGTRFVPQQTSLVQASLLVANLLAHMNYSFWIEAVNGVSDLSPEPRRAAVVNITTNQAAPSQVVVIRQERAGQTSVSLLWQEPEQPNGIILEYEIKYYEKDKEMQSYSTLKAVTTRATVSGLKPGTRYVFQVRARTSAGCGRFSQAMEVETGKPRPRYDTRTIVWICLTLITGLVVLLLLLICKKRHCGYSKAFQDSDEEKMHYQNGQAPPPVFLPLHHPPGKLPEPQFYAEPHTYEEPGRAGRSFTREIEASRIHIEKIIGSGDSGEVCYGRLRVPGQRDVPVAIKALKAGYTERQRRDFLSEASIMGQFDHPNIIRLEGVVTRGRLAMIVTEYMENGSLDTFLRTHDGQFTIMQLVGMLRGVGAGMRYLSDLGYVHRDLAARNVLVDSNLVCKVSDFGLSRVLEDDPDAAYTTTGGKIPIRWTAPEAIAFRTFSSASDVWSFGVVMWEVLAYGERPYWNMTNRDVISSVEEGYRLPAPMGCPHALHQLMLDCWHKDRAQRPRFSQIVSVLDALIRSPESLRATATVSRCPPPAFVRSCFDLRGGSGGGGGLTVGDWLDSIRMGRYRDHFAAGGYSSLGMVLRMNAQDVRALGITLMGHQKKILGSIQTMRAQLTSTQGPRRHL
Method: Nunc Maxisorb plates are coated with streptavidin by overnight incubation with 100 μL per well of 1 μg/ml Streptavidin in DPBS. Prior to the start of the experiment, the plates are washed with TBST (3×200 μL) and blocked for at least 1 hour by adding 150 μL of 5% BSA/TBST. The plates are washed with TBST (3×200 μL/well) and left dry immediately before the capture step.
The test articles and control (Staurosporine) are prepared using the following assay buffer @ 3× desired final concentration (50 mM Tris-HCl, 0.02 mg/ml BSA, 10 mM MgCl2, 0.1 mM Na3VO4, 1 mM EGTA, 12.5 μM ATP, 0.01% NP-40, 1 mM DTT in 10% glycerol/water). In a reaction plate are added rapidly 20 μl test article (or control) and 20 μl EphA8 (0.12 ng/μl final concentration). The plate is incubated for 15 minutes. To the reaction plate is added 20 μl of Pyk-2 (0.75 ng/μl final concentration). The plate is incubated at room temperature for one hour. From the reaction plate, 50 μl is transferred to the streptavidin coated plate. The capture plate is incubated at room temperature for 30 minutes, then washed 6× with TBST. To the capture plate is added 100 μL/well of Cell Signaling anti-phospho tyrosine at a dilution of 1:3000 in 2% BSA/TBST. The plate is incubated for one hour at room temperature then washed 6× with TBST. To the capture plate is added 100 μL/well of Alkaline Phosphatase Tagged Goat anti Mouse Antibody at a dilution of 1:4000 in 2% BSA/TBST. The plate is incubated for one hour at room temperature then washed 6× with TBST. The fluorescent readout is initiated by the addition of 100 μl/well of Attophos reagent (6 mg/10 mL). The reading is done on the Perkin Elmer Envision system.

DLD-1 = experiment: MTS Cellular Assay, DLD-1; assay type: cell-based; conditions: Homo sapiens, DLD-1, 72 hours
Method: (§1) Cells were maintained at 37° C., 5% CO2 in DMEM media supplemented with 1% fetal bovine serum, penicillin/streptomycin and fungizone (Invitrogen). Cells were seeded into 96-well tissue culture plates at 3000 per well and cultured at 37° C. for 18 hours. Test compounds were dissolved and diluted to 300× in DMSO then further diluted 1:40 in DMEM before addition to cells (1:7.5 dilution). Cells were incubated with test compounds for 72 hours followed by incubation with tetrazolium compound (3-(4,5-dimethylthiazol-2-yl)-5-(3-carboxymethoxyphenyl)-2-(4-sulfophenyl)-2H-tetrazolium, inner salt; MTS) and the electron coupling reagent, phenazine methosulfate (PMS) for 4 hours. […] The ability of compounds to inhibit cell growth in this assay is correlated with the reduction of dehydrogenase enzyme activity found in metabolically active cells. The measurement of the absorbance of the formazan was assessed using an ENVISION™ (Perkin Elmer) microplate reader at 492 nm. The calculated IC50 value is the concentration of the test compound that causes a 50% decrease in the absorbance.

KATO III = experiment: MTS Cellular Assay, KATO III; assay type: cell-based; conditions: Homo sapiens, 72 hours
Method: as §1

MDA-MB-231 = experiment: MTS Cellular Assay, MDA-MB-231; assay type: cell-based; conditions: Homo sapiens, MDA-MB-231, 72 hours
Method: as §1

NCI-H1299 = experiment: MTS Cellular Assay, NCI-H1299; assay type: cell-based; conditions: Homo sapiens, NCI-H1299, 72 hours
Method: as §1

PACA-2 = experiment: MTS Cellular Assay, PACA-2; assay type: cell-based; conditions: PACA-2, 72 hours
Method: as §1

PC-3 = experiment: MTS Cellular Assay, PC-3; assay type: cell-based; conditions: Homo sapiens, PC-3, 72 hours
Method: as §1

inhibition at 30 µM (EphA8): < 50%
SMILES: Nc1nc(N2CCN(Cc3ccccc3Cl)c3ccccc3C2)c2cn[nH]c2n1 [Compound 14, 4-[1-(2-chlorobenzyl)-1,2,3,5-tetrahydro-4H-1,4-benzodiazepin-4-yl]-1H-pyrazolo[3,4-d]pyrimidin-6-amine]
inhibition at 10 µM (DLD-1): > 79%
inhibition at 10 µM (KATO III): > 79%
inhibition at 10 µM (MDA-MB-231): > 79%
inhibition at 10 µM (NCI-H1299): 50 to 79%
inhibition at 10 µM (PACA-2): < 50%
inhibition at 10 µM (PC-3): > 79%

inhibition at 30 µM (EphA8): 50 to 79%
SMILES: Nc1nc(N2CCN(Cc3ccc(Cl)c(Cl)c3)c3ccccc3C2)c2cn[nH]c2n1 [Compound 43, 4-[1-(3,4-dichlorobenzyl)-1,2,3,5-tetrahydro-4H-1,4-benzodiazepin-4-yl]-1H-pyrazolo[3,4-d]pyrimidin-6-amine]
inhibition at 10 µM (DLD-1): > 79%
inhibition at 10 µM (KATO III): < 50%
inhibition at 10 µM (MDA-MB-231): < 50%
inhibition at 10 µM (NCI-H1299): 50 to 79%
inhibition at 10 µM (PACA-2): < 50%
inhibition at 10 µM (PC-3): < 50%
